# In US7653428B2, “Methods for diagnosing a neurodegenerative condition” (The Brigham and Women's Hospital, Inc., priority 2000, dated 2010):
# Experiments:
# [1] = cited from earlier work
# [2] = system: hTSLP (human total soluble lens protein); assay: Turbidity assay of human total soluble lens protein aggregation (absorbance at 400 nm); assay type: biochemical; conditions: for effect on Aβ-potentiated hTSLP aggregation: added during incubation of hTSLP with hAβ1-42; for promotion of hTSLP/hTLP aggregation: hTSLP 1 mg/ml, 37° C. in the dark, peptide added
# Protocol: Human lenses with intact capsules were dissected from whole globes and homogenized in 1 mL HPLC water. The homogenate was centrifuged for at 100,000×g for 1 hour at 4° C. and the supernatant utilized as hTLSP. Protein concentration was determined using a commercially available kit (Pierce). The final hTSLP concentration was 1 mg/mL.
# Test solutions of hTSLP (1 mg/ml) were plated to a final volume of 200 μL per well in 96 well microtiter plates with black sidewalls. Peptides and/or inhibitors were added to these solutions as indicated. Plates were incubated in the dark at 37° C. under humidified, CO2-balanced conditions. Turbidity (optical density) was assessed on a SpectraMax-Plus spectrophotometric plate reader set at a wavelength of 400 nm.
# (§1) Aggregation experiments were carried out in 96 well black micro titer plates, in the 2dark. Depending on the experiment, a combination of 20 μL of 10× lenticular protein (final concentration 1 mg/mL), 20 μL of 10× chelator solution (final concentration 200 μM), 20 μL of Catalase and/or SOD (final concentrations of 500 U/mL and 100 U/mL respectively), 20 μL of Aβ (final concentration of 10 μM), 20 μL of metal solution (final concentration 1 μM), and an amount of PBS buffer to bring the total volume in the well to 200 μL. hTLP aggregation or bTLP aggregation was monitored by observing an increase in absorbance at 400 nm using a Spectramax UV-V is spectrophotometer.
# [3] = system: bTLP (bovine lens protein); assay: Spontaneous bovine lens protein (bTLP) aggregation, absorbance at 400 nm; assay type: biochemical; conditions: 37° C. in the dark
# Protocol: Filtered phosphate buffered saline solution (pH 7.4) was treated with chelex and used to make stock solutions (10×) for all reagents (chemical or biological). Protein stock solution at a concentration of 10 mg/mL was prepared from the supernatant as described above. Stock solutions of chelators (ethylenediaminetetraacetic acid (EDTA), diethylenetriaminepentaacetic acid (DTPA), or triethylenetetramine (TETA)) were made up at a concentration of 2 mM freshly prepared in PBS. Stock solutions of Catalase and SOD were freshly prepared in PBS to have an activity of 5000 U/mL and 1000 U/mL respectively. Aβ was prepared as a suspension (100 uM) in PBS or HPLC water by sonicating for three minutes such that only monomers or dimers remained. Metals were prepared as a 10 μM solution; Cu is prepared as Cu:glycine (1:6) from copper sulfate.
# as §1
# The influence of Reactive Oxygen Species ((ROS), Cu/Zn Superoxide Dismutase (SOD), Catalase (Cat)) on spontaneous bTLP aggregation was analyzed.
# [4] = system: hTSLP (human total soluble lens protein); assay: Precipitation study of hTSLP incubated with hAβ1-42; assay type: biochemical; conditions: added during incubation of hTSLP with hAβ1-42
# Protocol: Solutions of hTSLP (1 mg/ml) were incubated with or without hAβ1-42 (10 μM; 45 μg/ml) for 0 or 7 days. The resulting mixtures were then centrifuged at 15,000×g for 15 min and separated into pellet and supernatant fractions. The amount of pelleted protein was calculated by subtracting the supernatant protein concentration on Day 7 from the initial concentration on Day 0.
# [5] = system: hTSLP (human total soluble lens protein); assay: Thioflavin-T fluorescence (total β-sheet content of protein mixture); assay type: biochemical; conditions: added during incubation of hTSLP with hAβ1-42
# Protocol: Fluorescence assays were conducted according to a standard protocols.
# To determine whether the Aβ-induced aggregation of hTSLP was accompanied by conformational changes, the total β-sheet content of the protein mixture was measured by monitoring thioflavin-T fluorescence.
Molecule,absolute log Ks for Cu ([1]; Cu),absolute log Ks for Fe ([1]; Fe),absolute log Ks for Zn ([1]; Zn),effect on Aβ-potentiated hTSLP aggregation [2],effect on bTLP aggregation [3],effect on protein precipitation [4],effect on increased β-sheet content [5],promotion of hTSLP/hTLP aggregation [2],promotion of hTSLP/hTLP aggregation ([2]; listed as insulin)
"O=C(O)CN(CCN(CC(=O)O)CC(=O)O)CCN(CC(=O)O)CC(=O)O [DTPA, diethylenetriaminepentaacetic acid]",22.0,28.1,19.3,abolished aggregation,reduces the extent of bTLP aggregation,blocked,blocked,–,–
"O=C(O)CN(CCN(CC(=O)O)CC(=O)O)CC(=O)O [EDTA, ethylenediaminetetraacetic acid]",–,–,–,–,reduces the extent of bTLP aggregation,–,–,–,–
"recombinant human insulin: recombinant human insulin, negative control of approximately the same molecular weight as Aβ",–,–,–,–,–,–,–,none,no effect on hTLP aggregation
superoxide dismutase: antioxidant scavenging enzyme,–,–,–,abolished aggregation,reduces the extent of bTLP aggregation,blocked,blocked,–,–
"synthetic rat Aβ1-40: synthetic rat β-amyloid peptide 1-40, relatively redox inert control peptide (DAEFGHDSGFEVRHQKLVFFAEDVGSNKGAIIGLMVGGVV; Amyloid-beta protein 40; UniProt P08592 672-711, looked up)",–,–,–,–,–,–,–,none,–
"catalase: antioxidant scavenging enzyme (protein, UniProt P04040 2-527, looked up) Catalase: ADSRDPASDQMQHWKEQRAAQKADVLTTGAGNPVGDKLNVITVGPRGPLLVQDVVFTDEMAHFDRERIPERVVHAKGAGAFGYFEVTHDITKYSKAKVFEHIGKKTPIAVRFSTVAGESGSADTVRDPRGFAVKFYTEDGNWDLVGNNTPIFFIRDPILFPSFIHSQKRNPQTHLKDPDMVWDFWSLRPESLHQVSFLFSDRGIPDGHRHMNGYGSHTFKLVNANGEAVYCKFHYKTDQGIKNLSVEDAARLSQEDPDYGIRDLFNAIATGKYPSWTFYIQVMTFNQAETFPFNPFDLTKVWPHKDYPLIPVGKLVLNRNPVNYFAEVEQIAFDPSNMPPGIEASPDKMLQGRLFAYPDTHRHRLGPNYLHIPVNCPYRARVANYQRDGPMCMQDNQGGAPNYYPNSFGAPEQQPSALEHSIQYSGEVRRFNTANDDNVTQVRAFYVNVLNEEQRKRLCENIAGHLKDAQIFIQKKAVKNFTEVHPDYGSHIQALLDKYNAEKPKNAIHTFVQSGSHLAAREKANL",–,–,–,abolished aggregation,reduces the extent of bTLP aggregation,blocked,blocked,–,–
